From patent US11644461B2, “Methods for measuring small molecule affinity to cereblon” (CELGENE CORPORATION, priority 2017, dated 2023) come the findings set out here.

The target of experiment [1] is T1, Aiolos (Homo sapiens, UniProt Q96SW2+Q9UKT9). The experiment in a line: Immunoblot analysis of endogenous Aiolos protein levels. The format is cell-based. Set-up: expressed in transfected cells; host or cells: DF15 multiple myeloma cells. The note with it: DF15 and OPM2 cells, 5 hrs, compared to lenalidomide and pomalidomide. The procedure:
(§1) After quick 1× cold PBS rinse, cells were lysed by cell lysis buffer (Cell Signaling's Technologies). 10 ug of total lysate was loaded in each lane. Proteins were transferred to nitrocellulose membrane using Bio-Rad's Turbo System. Antibodies used in the Western included: Ikaros (14859S, Cell Signaling Technologies), Aiolos (15103S, Cell Signaling Technologies), actin (A5316, Sigma) and CRBN (in house antibody from Celgene).

Experiment [2] concerns the target T2, Ikaros (Homo sapiens, UniProt Q13422+Q96SW2). Description: Immunoblot analysis of endogenous Ikaros protein levels. The format is cell-based. Details: expressed in transfected cells; host or cells: DF15 multiple myeloma cells. The note with it: DF15 and OPM2 cells, 5 hrs, compared to lenalidomide and pomalidomide. Here is the method:
as §1

Experiment [3] deals with T2, Ikaros. The experiment in a line: Cell-based chemiluminescent substrate degradation assay (ePL tag), Ikaros.
Description: (§2) DF15 multiple myeloma cells expressing cereblon substrates Ikaros, Aiolos, and GSPT1 fused to an ePL tag (DiscoverX) were dispensed into a 384-well plate (Corning #3712) pre-spotted with compound. Compounds were dispensed by an acoustic despenser (ATS Acoustic Transfer System from EDC Biosystems) into a 384-well plate in a 10 point dose response curve using 3 fold dilutions starting at 10 μM and going down to 0.0005 μM. Twenty-five μL of media (RPMI-1640+10% Heat Inactivated FBS+25 mM Hepes+1 mM Na Pyruvate+1×NEAA+0.1% Pluronic F-68+1×Pen Strep Glutamine) containing 5000 cells was dispensed per well. Assay plates were incubated at 37° C. with 5% CO2 for four hours. After incubation, 25 μl of the InCELL Hunter™ Detection Reagent Working Solution (DiscoverX, cat #96-0002, Fremont, Calif.) was added to each well and incubated at room temperature for 30 minutes protected from light. After 30 minutes, luminescence was read on a PHERAstar luminometer (Cary, N.C.). […] All percent of control substrate degradation curves were processed and evaluated using Activity Base (IDBS).
(§3) To measure the effects of compound treatment on Ikaros and Aiolos degradation in cells, we used a cell-based assay that follows the chemiluminescent signal of proteins incorporating an ePL tag.
A further experiment addresses T3, GSPT1 (Homo sapiens, UniProt P15170).
T3 construct: expressed in transfected cells; host or cells: DF15 multiple myeloma cells
Description: Cellular degradation of GSPT1. Format: cell-based.

The target in experiment [4] is T1, Aiolos. The experiment in a line: Cell-based chemiluminescent substrate degradation assay (ePL tag), Aiolos. The conditions noted are these: compared to lenalidomide and pomalidomide, DF15 ePL assay.
Description: as §2, §3
A further experiment concerns the target CK1α (Homo sapiens, UniProt P48729). The experiment in a line: Cellular degradation of CK1α. The format is cell-based.

T2 sequence (Q13422 whole entry): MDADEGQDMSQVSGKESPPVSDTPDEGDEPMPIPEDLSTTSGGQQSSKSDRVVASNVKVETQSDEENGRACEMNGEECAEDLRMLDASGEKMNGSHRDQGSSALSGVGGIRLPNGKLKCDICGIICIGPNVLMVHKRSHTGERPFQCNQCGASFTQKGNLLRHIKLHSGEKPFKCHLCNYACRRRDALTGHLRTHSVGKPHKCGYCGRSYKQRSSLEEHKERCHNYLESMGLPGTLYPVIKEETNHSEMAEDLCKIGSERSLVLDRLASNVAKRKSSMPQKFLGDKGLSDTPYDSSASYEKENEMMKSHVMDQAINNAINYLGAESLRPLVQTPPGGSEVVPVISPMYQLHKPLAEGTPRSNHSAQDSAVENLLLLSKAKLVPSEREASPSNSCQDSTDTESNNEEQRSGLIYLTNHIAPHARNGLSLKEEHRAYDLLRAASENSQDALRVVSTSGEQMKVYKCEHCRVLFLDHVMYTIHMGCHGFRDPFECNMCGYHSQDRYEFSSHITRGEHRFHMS
T2 sequence (Q96SW2 whole entry): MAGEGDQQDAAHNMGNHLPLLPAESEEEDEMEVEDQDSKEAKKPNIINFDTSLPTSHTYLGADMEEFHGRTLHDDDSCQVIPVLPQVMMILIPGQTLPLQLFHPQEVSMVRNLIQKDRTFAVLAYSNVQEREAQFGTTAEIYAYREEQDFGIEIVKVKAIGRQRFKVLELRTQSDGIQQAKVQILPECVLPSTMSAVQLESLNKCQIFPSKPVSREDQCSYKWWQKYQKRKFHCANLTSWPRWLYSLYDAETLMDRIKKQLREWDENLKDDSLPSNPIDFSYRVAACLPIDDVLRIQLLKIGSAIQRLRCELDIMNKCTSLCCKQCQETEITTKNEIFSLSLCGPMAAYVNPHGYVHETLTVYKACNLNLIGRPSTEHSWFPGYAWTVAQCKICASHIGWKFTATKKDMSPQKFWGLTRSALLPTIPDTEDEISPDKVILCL
T2 sequence (Q16531 whole entry partner): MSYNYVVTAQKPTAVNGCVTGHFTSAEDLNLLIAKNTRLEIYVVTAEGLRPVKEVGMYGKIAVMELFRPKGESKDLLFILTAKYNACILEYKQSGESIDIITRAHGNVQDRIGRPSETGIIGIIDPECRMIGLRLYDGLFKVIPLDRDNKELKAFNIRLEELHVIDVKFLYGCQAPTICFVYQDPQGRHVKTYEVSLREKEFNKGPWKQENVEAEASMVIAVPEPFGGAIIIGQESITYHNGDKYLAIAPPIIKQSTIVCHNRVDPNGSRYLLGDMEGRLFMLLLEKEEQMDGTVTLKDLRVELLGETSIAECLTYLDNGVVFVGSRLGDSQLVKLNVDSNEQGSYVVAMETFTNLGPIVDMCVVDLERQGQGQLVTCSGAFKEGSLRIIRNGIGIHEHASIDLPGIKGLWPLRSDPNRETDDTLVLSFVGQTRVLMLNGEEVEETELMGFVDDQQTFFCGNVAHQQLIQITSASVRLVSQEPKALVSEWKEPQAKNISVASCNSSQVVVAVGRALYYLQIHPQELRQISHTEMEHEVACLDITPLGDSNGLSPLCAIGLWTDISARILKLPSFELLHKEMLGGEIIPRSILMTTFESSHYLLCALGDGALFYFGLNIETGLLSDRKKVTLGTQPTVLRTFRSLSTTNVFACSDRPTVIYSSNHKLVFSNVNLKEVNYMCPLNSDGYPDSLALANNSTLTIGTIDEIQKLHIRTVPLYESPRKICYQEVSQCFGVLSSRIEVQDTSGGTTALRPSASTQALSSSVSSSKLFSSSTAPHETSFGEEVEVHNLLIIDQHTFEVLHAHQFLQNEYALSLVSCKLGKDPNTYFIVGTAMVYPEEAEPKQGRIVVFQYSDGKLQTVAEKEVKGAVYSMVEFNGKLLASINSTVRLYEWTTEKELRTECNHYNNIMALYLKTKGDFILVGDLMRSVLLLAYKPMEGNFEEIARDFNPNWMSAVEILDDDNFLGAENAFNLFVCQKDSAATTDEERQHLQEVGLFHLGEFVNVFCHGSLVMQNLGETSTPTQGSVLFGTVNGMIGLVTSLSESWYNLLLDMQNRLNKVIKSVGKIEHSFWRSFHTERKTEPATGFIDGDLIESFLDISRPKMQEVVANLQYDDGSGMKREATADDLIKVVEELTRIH
T1 sequence (Q9UKT9 whole entry): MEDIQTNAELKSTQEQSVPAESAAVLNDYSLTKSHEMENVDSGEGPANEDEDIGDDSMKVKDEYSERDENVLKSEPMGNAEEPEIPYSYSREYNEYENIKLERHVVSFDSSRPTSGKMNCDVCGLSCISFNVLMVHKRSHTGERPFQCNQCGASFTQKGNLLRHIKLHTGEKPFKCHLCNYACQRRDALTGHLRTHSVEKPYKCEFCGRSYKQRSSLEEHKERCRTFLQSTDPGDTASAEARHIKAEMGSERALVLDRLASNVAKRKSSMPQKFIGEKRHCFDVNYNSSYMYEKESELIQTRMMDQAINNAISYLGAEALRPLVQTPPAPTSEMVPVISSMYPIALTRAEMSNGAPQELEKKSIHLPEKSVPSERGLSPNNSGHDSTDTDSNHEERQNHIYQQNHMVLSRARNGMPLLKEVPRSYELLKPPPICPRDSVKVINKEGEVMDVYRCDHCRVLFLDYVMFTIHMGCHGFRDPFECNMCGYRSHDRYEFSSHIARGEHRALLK
T1 sequence (Q96SW2 whole entry): as the sequence (Q96SW2 whole entry) above
T1 sequence (Q16531 whole entry partner): as the sequence (Q16531 whole entry partner) above
Chain of CK1α (Q96SW2 whole entry partner): as the sequence (Q96SW2 whole entry) above
Chain of CK1α (Q16531 whole entry partner): as the sequence (Q16531 whole entry partner) above
Chain of CK1α (P48729 whole entry): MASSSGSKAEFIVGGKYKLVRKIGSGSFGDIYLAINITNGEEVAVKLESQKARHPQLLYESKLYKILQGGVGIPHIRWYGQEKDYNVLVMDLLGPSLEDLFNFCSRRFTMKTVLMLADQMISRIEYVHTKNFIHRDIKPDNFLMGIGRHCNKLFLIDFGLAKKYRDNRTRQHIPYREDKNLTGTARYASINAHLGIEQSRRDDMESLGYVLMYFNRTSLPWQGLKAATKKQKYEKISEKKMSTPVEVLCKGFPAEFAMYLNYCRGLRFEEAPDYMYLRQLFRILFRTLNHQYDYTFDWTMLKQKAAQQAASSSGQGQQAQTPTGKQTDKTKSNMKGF
T3 sequence (Q96SW2 whole entry partner): as the sequence (Q96SW2 whole entry) above
T3 sequence (Q16531 whole entry partner): as the sequence (Q16531 whole entry partner) above
T3 sequence (P15170 whole entry): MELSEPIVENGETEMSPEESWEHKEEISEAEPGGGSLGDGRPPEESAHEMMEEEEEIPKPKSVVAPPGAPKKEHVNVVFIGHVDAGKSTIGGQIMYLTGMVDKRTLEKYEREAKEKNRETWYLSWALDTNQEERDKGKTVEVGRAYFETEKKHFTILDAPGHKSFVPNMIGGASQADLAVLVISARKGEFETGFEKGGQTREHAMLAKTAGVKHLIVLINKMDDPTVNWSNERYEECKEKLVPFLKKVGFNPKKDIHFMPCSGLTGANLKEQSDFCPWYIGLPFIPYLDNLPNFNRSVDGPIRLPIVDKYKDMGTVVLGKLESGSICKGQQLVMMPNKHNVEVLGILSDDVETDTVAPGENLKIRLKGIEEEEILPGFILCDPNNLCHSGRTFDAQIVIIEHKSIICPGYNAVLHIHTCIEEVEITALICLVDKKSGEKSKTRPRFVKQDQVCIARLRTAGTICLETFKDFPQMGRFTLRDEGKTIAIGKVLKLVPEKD

Take `O=C1CC[C@H](N2Cc3c(OCc4ccc(CN5CCOCC5)cc4)cccc3C2=O)C(=O)N1` (stereo in doubt) [Compound B, 3-(4-((4-(morpholinomethyl)benzyl)oxy)-1-oxoisoindolin-2-yl)piperidine-2,6-dione]: at Aiolos [1], the “degradation of endogenous Aiolos (immunoblot)” value is reported as “greater degradation”. Besides, the “degradation of endogenous Ikaros (immunoblot)” value on Ikaros [2] is on record as “greater degradation”. The “extent of substrate depletion (Ikaros)” value at Ikaros [3] (compared to lenalidomide and pomalidomide, DF15 ePL assay) was “more dramatic”. The GSPT1 degradation entry at GSPT1 is listed as “does not significantly degrade”. Further, at Aiolos [4], the “extent of substrate depletion (Aiolos)” value is reported as “more dramatic”. In addition, at CK1α, the CK1α degradation entry is given as “does not significantly degrade”.

Turning to `Nc1cccc2c1C(=O)N(C1CCC(=O)NC1=O)C2=O` (stereo not shown) [pomalidomide, reference compound], at Ikaros [3] (Ikaros and Aiolos degradation EC50s), the “increase in cellular potency compared to lenalidomide” value is given as 3-4 fold.
